Measurements reported in patent publication EP3381907A1, “SYMMETRICAL 2-AMINOPHENYL-BENZAZOLYL-5-ACETATE COMPOUNDS AND THEIR USE AS ANTI-HEPARANASE” (Leadiant Biosciences SA, priority 2017, dated 2018).

Legend:
heparanase = molecular target: T1, heparanase (Homo sapiens, UniProt Q9Y251); assay: AGA*IA assay: colorimetric fondaparinux cleavage assay for heparanase inhibition (WST-1); assay type: biochemical; conditions: 2.5 nM heparanase, 100 µM fondaparinux, pH 5.0, 3 h at 37°C; class symbols
T1 sequence (Q9Y251 158-543 limits assumed): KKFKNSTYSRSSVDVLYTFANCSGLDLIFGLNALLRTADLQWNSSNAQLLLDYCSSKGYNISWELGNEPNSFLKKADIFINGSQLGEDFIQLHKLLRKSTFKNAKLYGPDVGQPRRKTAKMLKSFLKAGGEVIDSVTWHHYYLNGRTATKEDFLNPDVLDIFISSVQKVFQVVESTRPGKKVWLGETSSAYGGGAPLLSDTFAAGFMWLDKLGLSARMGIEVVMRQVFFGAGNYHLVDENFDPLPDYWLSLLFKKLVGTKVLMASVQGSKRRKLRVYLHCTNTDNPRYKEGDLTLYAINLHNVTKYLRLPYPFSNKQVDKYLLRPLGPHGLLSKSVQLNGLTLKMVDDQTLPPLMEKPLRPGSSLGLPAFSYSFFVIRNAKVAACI
T1 sequence (Q9Y251 36-109 limits assumed): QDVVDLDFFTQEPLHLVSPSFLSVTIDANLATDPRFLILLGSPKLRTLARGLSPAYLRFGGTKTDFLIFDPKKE
Method: All compounds were tested in a simple, accurate and robust microplate assay based on the cleavage of the synthetic heparin fragment, the pentasaccharide Fondaparinux (AGA*IA). This assay was originally developed by Hammond and coworkers [Hammond E, Li CP, Ferro V. Development of a colorimetric assay for heparanase activity suitable for kinetic analysis and inhibitor screening. Anal. Biochem. 396(1), 112-116 (2010)], where Fondaparinux corresponds to the methyl glycoside of the antithrombin III (ATIII)-activating pentasaccharide sequence of heparin. Fondaparinux is cleaved by heparanase to generate a reducing disaccharide, which can be quantitatively measured via a colorimetric or a fluorescence assay, the last by the fluorescent sensor polymer-H [Schiemann S, Lühn S, Alban S. Development of both colorimetric and fluorescence heparinase activity assays using fondaparinux as substrate. Anal. Biochem. 427(1), 82-89 (2012)].
The assay measures the appearance of the disaccharide product of heparanase-catalyzed fondaparinux cleavage colorimetrically using the tetrazolium salt WST-1. Assay was essentially performed as described with minor modifications. Briefly, NUNC ELISA 96-well plates were pre-treated with a solution of 4% BSA (bovin serum albumin) in phosphate-buffered saline containing 0.05% Tween 20 (PBST), for 2 h at 37°C, then washed three times with PBST, dried by tapping on paper towel and stored at -20°C. Before use, once again, the plates were washed with PBST.
Assay was carried out with 100 µl/well of assay solution containing 40 mM sodium acetate buffer (pH 5.0), 100 µM fondaparinux, 2.5 nM heparanase and serial dilutions of test compounds (tested in triplicate). Plates were sealed with adhesive tape and incubated, in the dark, for 3 h at 37°C, followed by development with 1.69 mM of the tetrazolium salt WST-1 solution in 0.1 M NaOH, for 1 h at 60°C. Then, the absorbance at 560 nm was measured through a microplate reader (Victor 3, Perkin Elmer).
Finally, the measurements were corrected by subtracting both the reagent background and the inner absorbance value of test compound.

[1] = test system: U2OS (human osteosarcoma); assay: SRB Cell Cytotoxicity Assay, U2OS; assay type: cell-based; conditions: 72h treatment, read-out: Concentration (µM) of test compounds at which the cell growth is inhibited by 50 %. U2OS
From the text: (§1) SRB Cell Cytotoxicity Assay is an assay based upon the quantitative staining of cellular proteins by sulforhodamine B (SRB). This assay can be used for high-throughput drug screening (Vichai & Kirkitara, Nature Protocol. 2006, 1, 112). Sulforhodamine B is an anionic aminoxanthene dye that forms an electrostatic complex with the basic amino acid residues of proteins under moderately acid conditions, which provides a sensitive linear response.
(§2) To assess a putative antiproliferative activity of the selected compounds, HT1080 (human fibrosarcoma), U87MG (human glioblastoma astrocytoma) and U2OS (human osteosarcoma) cell lines were treated for 72h, in triplicate, with increasing concentrations of heparanase inhibitors. Inhibition of cell proliferation was then measured by the classical colorimetric SRB Cell Cytotoxicity assay. Absorbance was measured by spectrophotometer at a wavelength of 510 nm and cell proliferation was determined as percent with respect to control cells (cells treated with the vehicle alone). EC50 values were then determined by GraphPad Prism.

[2] = test system: U87MG (human glioblastoma astrocytoma); assay: Cell adhesion assay on matrigel coated wells, U87MG; assay type: cell-based; conditions: percent of adhesion with respect to the control (100%)
Method: (§3) Cell surface, non-integrin molecules such as heparan sulfate proteoglycans (HSPGs) may be involved in the regulation of early adhesive stages of cell-ECM interactions. A cell adhesion assay has been employed to determine if the newly designed heparanase inhibitors were able to interfere with adhesion properties of cancer cells.
(§4) HT1080 (human fibrosarcoma) and U87MG (human glioblastoma astrocytoma) cells were treated for 18-20 h with test compounds in complete medium supplemented with 10% FCS. Then cells were collected, washed in complete medium, and added to matrigel coated wells in triplicate, at previously identified optimal seeding density, and incubated at 37 °C in complete medium for times ranging from 15 minutes to 4h, according to the cell line. After incubation, the wells were washed three times with serum-free medium and the remaining firmly attached cells were stained with crystal-violet 0.1%. Optical density was measured at 560 nm by Victor 3 (Perkin-Elmer) plate analyzer. Each experiment was repeated three times.
(§5) Table 3. […] In Invasion assay, data were expressed as the percent invasion (range) with respect to cell migration through uncoated insert membrane. In Adhesion assay, data were expressed as the percent of adhesion with respect to the control (100%). • Legend • ++: 50-90% • + : < 50% • - : Not Active

[3] = test system: U87MG (human glioblastoma astrocytoma); assay: SRB Cell Cytotoxicity Assay, U87MG; assay type: cell-based; conditions: U-87 MG, 72h treatment, read-out: Concentration (µM) of test compounds at which the cell growth is inhibited by 50 %. U87MG
From the text: as §1, §2

[4] = test system: U2OS (human osteosarcoma); assay: Matrigel cell invasion assay, U2OS; assay type: cell-based; set-up: key to Invasion Assay Inhibition U2OS: ++: 50-90%; +: < 50%; -: Not Active
Method: (§6) Heparanase inhibitors were then evaluated for their activity on the invasive potential of HT1080 (human fibrosarcoma), U87MG (human glioblastoma astrocytoma) and U2OS (human osteosarcoma) human cell lines, using the Matrigel cell invasion assay which allows to assess the cell invasion ability of malignant and normal cells.
(§7) Invasion assay was performed using BioCoat cell culture inserts (BioCoat 8.0µm PET Membrane 24 Well Permeable Supports, Corning). Filters were coated with 100 µl of 300 µg/ml Matrigel dissolved in coating buffer (0.01 M Tris pH 8.0, 0.7% NaCl) (Becton-Dickinson Sciences). DMEM (Dulbecco's Modified Eagle's Medium) containing 5% FBS was added to the lower chambers. Cells were pre-treated with heparanase inhibitors for 24 h, detached and added to the upper chambers in media containing the inhibitors. Cells were allowed to invade for 24 h at 37°C in a CO2 incubator and then unmigrated cells were removed from the upper chamber with a cotton swab. The invading cells were fixed, stained with 0.1% crystal violet for 10 min at room temperature, photographed and counted under inverted microscope.
(§8) Test compounds were analyzed at fixed concentration (2.5 µM) for several fields, in duplicates. Activity of test compounds was compared to the reference compound. Activity of most interesting compound was confirmed in a second cell invasion assay. Data were expressed as the percent invasion with respect to cell migration through uncoated insert membrane (see Table 3 below)
as §5

[5] = test system: HT1080 (human fibrosarcoma); assay: Cell adhesion assay on matrigel coated wells, HT1080; assay type: cell-based; conditions: percent of adhesion with respect to the control (100%)
Method: as §3, §4, §5

[6] = test system: U87MG (human glioblastoma astrocytoma); assay: Matrigel cell invasion assay, U87MG; assay type: cell-based; set-up: key to Invasion Assay Inhibition U87MG: ++: 50-90%; +: < 50%; -: Not Active
Method: as §6, §7, §8, §5

[7] = test system: HT1080 (human fibrosarcoma); assay: Matrigel cell invasion assay, HT1080; assay type: cell-based
Method: as §6, §7, §8, §5

[8] = test system: HT1080 (human fibrosarcoma); assay: SRB Cell Cytotoxicity Assay, HT1080; assay type: cell-based; conditions: HT-1080, HT1080, 72h treatment, read-out: Concentration (µM) of test compounds at which the cell growth is inhibited by 50 %. HT1080
From the text: as §1, §2

Compound: C[C@H](NC(=O)Cc1ccc2oc(-c3ccc(NC(=O)Nc4ccc(-c5nc6cc(CC(=O)N[C@@H](C)C(=O)O)ccc6o5)cc4F)c(F)c3)nc2c1)C(=O)O [Compound 27, (2S,2'S)-2,2'-((2,2'-(((Carbonylbis(azanediyl))bis(3-fluoro-4,1-phenylene))bis(benzo[d]oxazole-2,5-diyl))bis(acetyl))bis(azanediyl))dipropionic acid]
- IC50 (heparanase): 0.05 to 0.49 µM
- EC50 [1]: > 10 µM
- Adhesion Assay (%) U87MG ([2]; test compound at 2.5 µM): 61.10%
- EC50 [3]: > 10 µM
- inhibition at 2.5 µM ([4]; Homo sapiens, test compound at 2.5 µM, 24 h pre-treatment, 24 h invasion): < 50%
- Adhesion Assay (%) HT1080 ([5]; HT1080, test compound at 2.5 µM): 90.94%
- inhibition at 2.5 µM ([6]; Homo sapiens, U-87 MG, test compound at 2.5 µM, 24 h pre-treatment, 24 h invasion): 50 to 90%
- inhibition at 2.5 µM ([7]; HT-1080, HT1080, test compound at 2.5 µM, 24 h pre-treatment, 24 h invasion): < 50%
- EC50 [8]: > 10 µM

Compound: Cc1ccc(C(=O)Nc2ccc(S(=O)(=O)O)c3cc(S(=O)(=O)O)cc(S(=O)(=O)O)c23)cc1NC(=O)c1cccc(NC(=O)Nc2cccc(C(=O)Nc3cc(C(=O)Nc4ccc(S(=O)(=O)O)c5cc(S(=O)(=O)O)cc(S(=O)(=O)O)c45)ccc3C)c2)c1 [Suramin, reference compound]
- EC50 [1]: > 10 µM
- Adhesion Assay (%) U87MG ([2]; reference compound at 10 µM): 100%
- EC50 [3]: > 10 µM
- Invasion Assay Inhibition U2OS ([4]; reference compound at 10 µM): -
- Adhesion Assay (%) HT1080 ([5]; HT1080, reference compound at 10 µM): 72.98%
- Invasion Assay Inhibition U87MG ([6]; reference compound at 10 µM): -
- inhibition at 10 µM ([7]; HT-1080, HT1080, reference compound at 10 µM): < 50%
- EC50 [8]: > 10 µM
